The data set concerns CCRIS mutagenicity, Ames/micronucleus/aberration tests. The data set can be described thus: CCRIS mutagenicity studies.
Setting [1] is: Test System: AMES SALMONELLA TYPHIMURIUM, Strain/Indicator: TA97, Metabolic Activation: NONE, Method: PREINCUBATION
Where [2] appears, read: Test System: AMES SALMONELLA TYPHIMURIUM, Strain/Indicator: TA98, Metabolic Activation: NONE, Method: PREINCUBATION
[3] abbreviates: Test System: AMES SALMONELLA TYPHIMURIUM, Strain/Indicator: TA100, Metabolic Activation: NONE, Method: PREINCUBATION

Among the data in PubChem BioAssay AID1259407 (Chemical Carcinogenesis Research Information System (CCRIS), 2018) are mutagenic call values, retold here.

Active and inactive are the calls of the source. How the calls were made is not given here.

On to `CCN(CC)C(=O)c1cccc(C)c1`, for which the mutagenic call was “inactive; negative” (End Point: In vitro chromosomal aberrations, Test System: Chinese hamster ovary (CHO-K1) cells, Metabolic Activation: None); “inactive; negative” (End Point: In vitro chromosomal aberrations, Test System: Chinese hamster ovary (CHO-K1) cells, Metabolic Activation: Rat, Liver, S-9, Aroclor 1254); “inactive; negative” (Test System: AMES SALMONELLA TYPHIMURIUM, Strain/Indicator: TA97, Metabolic Activation: HAMSTER, LIVER, S-9, AROCLOR 1254 (10%), Method: PREINCUBATION); “inactive; negative” (Test System: AMES SALMONELLA TYPHIMURIUM, Strain/Indicator: TA97, Metabolic Activation: HAMSTER, LIVER, S-9, AROCLOR 1254 (30%), Method: PREINCUBATION); “inactive; negative” under setting [1]; “inactive; negative” (Test System: AMES SALMONELLA TYPHIMURIUM, Strain/Indicator: TA97, Metabolic Activation: RAT, LIVER, S-9, AROCLOR 1254 (10%), Method: PREINCUBATION). The mutagenic call is “inactive; negative” (Test System: AMES SALMONELLA TYPHIMURIUM, Strain/Indicator: TA97, Metabolic Activation: RAT, LIVER, S-9, AROCLOR 1254 (30%), Method: PREINCUBATION); “inactive; negative” (Test System: AMES SALMONELLA TYPHIMURIUM, Strain/Indicator: TA98, Metabolic Activation: HAMSTER, LIVER, S-9, AROCLOR 1254 (10 OR 30%), Method: PREINCUBATION); “inactive; negative” under setting [2]; “inactive; negative” (Test System: AMES SALMONELLA TYPHIMURIUM, Strain/Indicator: TA98, Metabolic Activation: RAT, LIVER, S-9, AROCLOR 1254 (10 OR 30%), Method: PREINCUBATION); “inactive; negative” (Test System: AMES SALMONELLA TYPHIMURIUM, Strain/Indicator: TA100, Metabolic Activation: HAMSTER, LIVER, S-9, AROCLOR 1254 (10 OR 30%), Method: PREINCUBATION); “inactive; negative” under setting [3]. The mutagenic call was “inactive; negative” (Test System: AMES SALMONELLA TYPHIMURIUM, Strain/Indicator: TA100, Metabolic Activation: RAT, LIVER, S-9, AROCLOR 1254 (10 OR 30%), Method: PREINCUBATION); “inactive; negative” (Test System: AMES SALMONELLA TYPHIMURIUM, Strain/Indicator: TA1535, Metabolic Activation: HAMSTER, LIVER, S-9, AROCLOR 1254 (10%), Method: PREINCUBATION); “inactive; negative” (Test System: AMES SALMONELLA TYPHIMURIUM, Strain/Indicator: TA1535, Metabolic Activation: HAMSTER, LIVER, S-9, AROCLOR 1254 (30%), Method: PREINCUBATION); “inactive; negative” (Test System: AMES SALMONELLA TYPHIMURIUM, Strain/Indicator: TA1535, Metabolic Activation: NONE, Method: PREINCUBATION); “inactive; negative” (Test System: AMES SALMONELLA TYPHIMURIUM, Strain/Indicator: TA1535, Metabolic Activation: RAT, LIVER, S-9, AROCLOR 1254 (10%), Method: PREINCUBATION); “inactive; negative” (Test System: AMES SALMONELLA TYPHIMURIUM, Strain/Indicator: TA1535, Metabolic Activation: RAT, LIVER, S-9, AROCLOR 1254 (30%), Method: PREINCUBATION).
As for `CC(=O)Nc1ccc(Oc2ccc([N+](=O)[O-])cc2)cc1`, the mutagenic call reads like this: (Test System: AMES SALMONELLA TYPHIMURIUM, Strain/Indicator: TA98(1,8-DNP6), Metabolic Activation: NONE, Method: PREINCUBATION) “inactive; negative”; (Test System: AMES SALMONELLA TYPHIMURIUM, Strain/Indicator: TA98(1,8-DNP6), Metabolic Activation: RAT, LIVER, S-9, AROCLOR 1254, Method: PREINCUBATION) “inactive; negative”; (Test System: AMES SALMONELLA TYPHIMURIUM, Strain/Indicator: TA98(NR), Metabolic Activation: NONE, Method: PREINCUBATION) “inactive; negative”; (Test System: AMES SALMONELLA TYPHIMURIUM, Strain/Indicator: TA98(NR), Metabolic Activation: RAT, LIVER, S-9, AROCLOR 1254, Method: PREINCUBATION) “inactive; negative”; under setting [2], “active; positive”; (Test System: AMES SALMONELLA TYPHIMURIUM, Strain/Indicator: TA98, Metabolic Activation: RAT, LIVER, S-9, AROCLOR 1254, Method: PREINCUBATION) “active; positive”. Further, the mutagenic call (Test System: AMES SALMONELLA TYPHIMURIUM, Strain/Indicator: TA100(NR), Metabolic Activation: NONE, Method: PREINCUBATION) is “inactive; negative”; the mutagenic call (Test System: AMES SALMONELLA TYPHIMURIUM, Strain/Indicator: TA100(NR), Metabolic Activation: RAT, LIVER, S-9, AROCLOR 1254, Method: PREINCUBATION) is “active; positive”; the mutagenic call under setting [3] was “active; positive”; the mutagenic call (Test System: AMES SALMONELLA TYPHIMURIUM, Strain/Indicator: TA100, Metabolic Activation: RAT, LIVER, S-9, AROCLOR 1254, Method: PREINCUBATION) was “active; positive”.
Consider `CC1(C)CC(N)CC(C)(C)N1[O]`, for which the mutagenic call runs as follows: (Test System: AMES SALMONELLA TYPHIMURIUM, Strain/Indicator: TA98, Metabolic Activation: NONE, Method: STANDARD PLATE) “active; positive”; (Test System: AMES SALMONELLA TYPHIMURIUM, Strain/Indicator: TA98, Metabolic Activation: RAT LIVER S-9, PCB, Method: STANDARD PLATE) “inactive; negative”; (Test System: AMES SALMONELLA TYPHIMURIUM, Strain/Indicator: TA100, Metabolic Activation: NONE, Method: STANDARD PLATE) “active; positive”; (Test System: AMES SALMONELLA TYPHIMURIUM, Strain/Indicator: TA100, Metabolic Activation: RAT LIVER S-9, PCB, Method: STANDARD PLATE) “inactive; negative”; (Test System: AMES SALMONELLA TYPHIMURIUM, Strain/Indicator: TA102, Metabolic Activation: NONE, Method: STANDARD PLATE) “inactive; negative”.
For `O=c1c2c(O)cccc2oc2c3c(cc(O)c12)O[C@H]1OC=C[C@@H]31`, the mutagenic call by setting is: (Test System: AMES SALMONELLA TYPHIMURIUM, Strain/Indicator: TA98, Metabolic Activation: RAT, LIVER, S-9, PHENOBARBITAL, Method: STANDARD PLATE) “inactive; negative”; (Test System: AMES SALMONELLA TYPHIMURIUM, Strain/Indicator: TA100, Metabolic Activation: RAT, LIVER, S-9, PHENOBARBITAL, Method: STANDARD PLATE) “active; positive”.
For `CCNC(=O)CC[C@H](N)C(=O)O`, the mutagenic call was “inactive; negative” under setting [1]; “inactive; negative” (Test System: AMES SALMONELLA TYPHIMURIUM, Strain/Indicator: TA97, Metabolic Activation: RAT, LIVER, S-9, AROCLOR 1254, Method: PREINCUBATION); “inactive; negative” (Test System: AMES SALMONELLA TYPHIMURIUM, Strain/Indicator: TA102, Metabolic Activation: NONE, Method: PREINCUBATION); “inactive; negative” (Test System: AMES SALMONELLA TYPHIMURIUM, Strain/Indicator: TA102, Metabolic Activation: RAT, LIVER, S-9, AROCLOR 1254, Method: PREINCUBATION).
